pIC50: −log10 of the molar value. Entries after “also recorded” stand apart in the source; their conditions may differ.

In test [1] the test system is MB49 mouse bladder carcinoma tumors. The test can be described thus: Subcutaneous MB49 tumor growth in C57BL/6 mice. The format is in vivo. The following applies: C57BL/6 female mice; 5 mg/kg intratumorally on days 7, 10, 14 and 20; vs saline. The procedure: The in vivo anti-tumor effect of Enones was determined by xenotransplantation of MB49 mouse bladder carcinoma cells in syngeneic, immunocompetent C57BL/6 female mice.
On this basis, the in vivo anti-tumor activity of Enone-2 was tested. Female mice were transplanted subcutaneously with 10^6 MB49 cells which formed tumors of approx. 40-60 mm^2 size by day 7. Mice were randomly separated in 2 groups of 5 animals each and injected intratumorally with 50 μl Enone-2 to achieve 5 mg/kg drug dose on days 7, 10, 14 and 20. The tumor size was monitored using a digital caliper and expressed in mm^2 by multiplying the length (the longest diameter) with the width (the shortest diameter perpendicular to length) of the tumor.

The test system of test [2] is VM-CUB-1 bladder cancer cells. The test is described as follows: MTT conversion assay, VM-CUB-1. Type of test: cell-based, human. The following applies: Homo sapiens, 48 hrs treatment. The procedure: (§1) In particular, Enone-1 and Enone-2 were tested for cytotoxic activity in 17 cell lines representing a broad spectrum of human tumors. They include human colorectal carcinoma (Caco2, RKO, HCT15, HT29), liver (HepG2), lung (A549), ovarian carcinoma (A2780, 2780CP, AGE60, SKOV3), anaplastic large cell lymphoma (Mac1 and Mac2a), breast carcinoma (MDA-MB-231), cervical (HeLa), bladder cancer (VM-CUB-1), melanoma (BRO), and multiple myeloma (MR20).
(§2) Each assay was performed in triplicate and repeated in 2-3 independent experiments. Specifically, to measure cell survival, 20 μl of 10 mg/ml MTT (3-([…])-2,5-diphenyl tetrazolium bromide; Sigma) was added to each well and the plates were incubated at 37° C. in 5% CO2 for 3 hours. The supernatant was removed and the formed crystals were dissolved in 200 μl dimethyl sulphoxide. The plates were then analysed at 450 nm on a plate reader. Growth inhibition (reduction in survival) was calculated by expressing the differences in optical densities between treatment wells and control wells as a percentage of the control.

Test [3] concerns HepG2 liver cells. The test can be described thus: MTT conversion assay, HepG2. The note with it: Homo sapiens, 48 hrs treatment. The format is cell-based, human. The procedure:
as §1, §2

For test [4], the system named is A2780 ovarian cancer cells. The test is described as follows: PrestoBlue cell viability assay. The format is cell-based, human. The note with it: Homo sapiens, 72 hrs treatment, n=3 experiments. The procedure: The effects of Enone-1 and Enone-2 on cancer cells were confirmed using a second methodology, namely the PrestoBlue assay (PrestoBlue™ Cell Viability Reagent, Thermo Fisher, Catalog number: A13261), a cell permeable resazurin-based solution that functions as a cell viability indicator. A2780 ovarian cancer cells were plated as described above for the MTT assays and Enone drugs were added at increasing concentrations as indicated in FIG. 2. Cell viability was determined 72 hrs later following the addition of PrestoBlue, according to the manufacturer's instructions (Thermo Fisher).

In test [5] the test system is p53. The test can be described thus: p53 immunoblot in AGE60 cells. Type of test: cell-based, human. The following applies: 2.5 μM, 6 or 14 hr. The method, then: FIG. 8: Enones induce the p53 pathway. […] Cell lysates were analyzed for p53 and GAPDH (loading control). (B) A2780 cells were cultured in the presence or absence of 2.5 μM for the indicated time points before being analyzed for p53 and GAPDH levels. (C) Treatment of A2780 cells with 2.5 μM Enone-2 results in the up-regulation of p53-regulated genes (*p<0.05; **p<0.01; ***p<0.001, n=4). (D) Induction of p53 accumulation in AGE60 ovarian carcinoma cells following 6 or 14 hr exposure to 2.5 μM Enone-2. (E) Enone-1 induces the p53 pathway in A2780 cells which were cultured in the presence of 2.5 μM of the drug and analyzed as in (B). (F) Treatment of A2780 cells with 2.5 μM Enone-2 results in the up-regulation of p53-regulated genes (*p<0.05; **p<0.01; ***p<0.001, n=3).
The effects of Enone-2 on p53 and p53-dependent transcription of cell cycle and cell death-associated genes was confirmed by immunoblotting for p53 and by reverse transcription qPCR (RT-qPCR) for mdm2, p21, bax and bbc3/puma, established p53 target genes.

Test [6] relates to A2780 ovarian carcinoma cells. The test is described as follows: Clonogenic assay. The format is cell-based, human. The note with it: 12 hours treatment with 2.5 μM or 5.0 μM, colonies on day 10, compared with cis-platin. The source says:
The long-term effects of Enone-2 on tumor cell survival were examined by using clonogenic assays which assess the ability of single cells to survive and reproduce to form colonies. […] The colonies formed on day 10 were visualized by staining with crystal violet following cell fixation and enumerated.

For test [7], the system named is A2780 ovarian carcinoma cells. The test is described as follows: Cell cycle analysis by propidium iodide flow cytometry. The following applies: 2.5 μM or 5 μM for 24 hours. The format is cell-based, human. The procedure: The effect of Enone-2 on cell cycle progression was tested to determine if it causes cell cycle arrest, in addition to inducing cell death. To this end, A2780 ovarian carcinoma cells were treated with 2.5 μM or 5 μM Enone-2 for 24 hours, cells were detached, fixed in 1% Neutral Buffered Formalin and stained with 5 μg/ml propidium iodide. Cell suspensions were next analyzed for fluorescence intensities (DNA content) by quantitative flow cytometry.

Test [8] deals with HeLa cervical carcinoma cells. The test can be described thus: MTT conversion assay, HeLa. Type of test: cell-based, human. The following applies: Homo sapiens, 48 hrs treatment. The method, then: as §1, §2
Test [9] relates to γH2Ax. The test can be described thus: γH2Ax immunoblot (DNA damage response marker) in A2780 cells. The format is cell-based, human. The note with it: 6 hrs, increasing concentrations, relative to untreated controls. The procedure: FIG. 9. […] A2780 cells were cultured for 6 hrs in the presence of drug concentrations as indicated. (B) Effects of siRNA targeting RPL11 (siRPL11), Chek2 (siChek2) or the unrelated luciferase (Luci) genes on RPL11 and Chek2 mRNA levels quantified by RT-PCR. (C) Effects of siRpl11 on Enone-2 and oxaliplatin (OXA)-induced p53 activation. Expression levels relative to GAPDH are indicated; untreated controls (CNT) were given the arbitrary value of 1. […] Expression levels relative to GAPDH are indicated; untreated controls (CNT) were given the arbitrary value of 1.

The test system of test [10] is 2780CP, a cis-platin-resistant derivative of A2780. The test is described as follows: MTT conversion assay, 2780CP. Type of test: cell-based, human. The procedure: as §1, §2
Resistance to platinum-based chemotherapy is a major problem in oncology that impacts therapeutic options and limits patient survival. This is relevant to several types of malignancy, including ovarian cancer where platinum resistance frequently occurs. As Enone-1 and 2 show efficacy in reducing survival of A2780 ovarian carcinoma cells, the drugs were also tested in 2780CP, a cis-platin-resistant derivative of A2780 [13].

As for `C[C@@]1(O)C=CC(=O)[C@H]1c1ccc(F)c2ccccc12` (stereo in doubt) [Enone-2, 5-(4-fluoronaphthalen-1-yl)-4-hydroxy-4-methylcyclopent-2-en-1-one], the “subcutaneous tumor growth (tumor size)” value in test [1] is given as “arrested tumor growth”. Also, the pIC50 in test [2] was 6.10; in test [3] it was 5.52; in test [4], 6.92; in test [8], 5.21; in test [10] (Homo sapiens, A2780, 2780CP, ovarian, cis-platin-resistant, 48 hrs treatment, MTT), 6.15. In addition, the “p53 accumulation (immunoblot)” value in test [5] is recorded as “robust p53 accumulation”. In test [6], the “number of colonies formed” value is recorded as “lower than the equivalent dose of cis-platin”. Besides, in test [7], the “cell cycle progression (DNA content)” value is on record as “accumulation of cells in the G2/M phase of the cell cycle in a concentration dependent manner”. Besides, the “γH2Ax induction (marker of DDR)” value in test [9] is reported as “no effect relative to untreated controls”. Further, in test [10] (MTT conversion assays), the “sensitivity of 2780CP cells compared with cis-platin-sensitive A2780 cells” value was “nearly as sensitive; also recorded: remain sensitive”.

These data come from patent US20250268844A1, “ANTICANCER AGENTS BASED ON CYCLOPENTENONES” (UNIVERSITY OF CRETE, priority 2022, published 2025).
